Test results taken from the NIST ThermoML archive (doi:10.1016/j.fluid.2012.08.002).
± gives the expanded uncertainty stated by the source.

Settings: 101.33 kPa, Liquid; for speed of sound: Sing-around technique in a fixed-path interferometer; for mass density: Vibrating tube method

Row | SMILES | speed of sound (288.15 K) | mass density (288.15 K) | speed of sound (293.15 K) | mass density (293.15 K) | speed of sound (298.15 K) | mass density (298.15 K) | speed of sound (303.15 K) | mass density (303.15 K) | speed of sound (308.15 K) | mass density (308.15 K) | speed of sound (313.15 K) | mass density (313.15 K) | speed of sound (318.15 K) | mass density (318.15 K)
1 | CCCCCCn1cc[n+](C)c1.[Br-] [3-hexyl-1-methyl-1H-imidazolium bromide] | 1639.8 ± 1.3 m/s | 1231.03 ± 0.42 kg/m3 | 1610.6 ± 1.3 m/s | 1227.49 ± 0.42 kg/m3 | 1587.5 ± 1.3 m/s | 1223.82 ± 0.42 kg/m3 | 1568.1 ± 1.3 m/s | 1220.47 ± 0.41 kg/m3 | 1551.2 ± 1.3 m/s | 1216.79 ± 0.41 kg/m3 | 1533.5 ± 1.2 m/s | 1213.28 ± 0.41 kg/m3 | 1517.8 ± 1.2 m/s | 1209.94 ± 0.4 kg/m3
2 | COCCO [2-methoxyethan-1-ol] | 1376.5 ± 0.85 m/s | 969.374 ± 0.091 kg/m3 | 1359 ± 0.85 m/s | 964.809 ± 0.092 kg/m3 | 1341.7 ± 0.84 m/s | 960.222 ± 0.094 kg/m3 | 1324.5 ± 0.84 m/s | 955.615 ± 0.095 kg/m3 | 1307.1 ± 0.83 m/s | 950.971 ± 0.097 kg/m3 | 1290 ± 0.83 m/s | 946.306 ± 0.098 kg/m3 | 1272.8 ± 0.82 m/s | 941.609 ± 0.099 kg/m3
3 | CCCCCCn1cc[n+](C)c1.F[B-](F)(F)F [1-hexyl-3-methylimidazolium tetrafluoroborate] | 1548.8 ± 1.2 m/s | 1155.32 ± 0.36 kg/m3 | 1535 ± 1.2 m/s | 1151.79 ± 0.35 kg/m3 | 1521.9 ± 1.2 m/s | 1148.26 ± 0.35 kg/m3 | 1509.2 ± 1.2 m/s | 1144.74 ± 0.35 kg/m3 | 1497 ± 1.2 m/s | 1141.23 ± 0.34 kg/m3 | 1485 ± 1.2 m/s | 1137.83 ± 0.34 kg/m3 | 1473.3 ± 1.2 m/s | 1134.43 ± 0.34 kg/m3
4 | CCCCCCn1cc[n+](C)c1.F[P-](F)(F)(F)(F)F [1-hexyl-3-methylimidazolium hexafluorophosphate] | 1449.1 ± 1.2 m/s | 1302.74 ± 0.49 kg/m3 | 1434.1 ± 1.2 m/s | 1298.71 ± 0.48 kg/m3 | 1420.3 ± 1.2 m/s | 1294.69 ± 0.48 kg/m3 | 1407.3 ± 1.2 m/s | 1290.66 ± 0.48 kg/m3 | 1394.9 ± 1.2 m/s | 1286.64 ± 0.47 kg/m3 | 1383 ± 1.2 m/s | 1282.63 ± 0.47 kg/m3 | 1371.5 ± 1.2 m/s | 1278.72 ± 0.47 kg/m3
